From article PMC11993615, “Design, synthesis and optimization of TarO inhibitors as multifunctional antibiotics against Methicillin-resistant Staphylococcus aureus” (npj Antimicrobials and Resistance, 2025)
In brackets after ≈: the same amount, converted by molar mass.

How the values were obtained:
[1] = tested on: USA300 LAC; test: MIC determination, broth microdilution; conditions: Staphylococcus aureus
[2] = Solubility of compounds in water (HPLC); type: physicochemical; conditions: pure water
Method: Weigh the sample in a 10 mL volumetric flask, dissolve in methanol up to the mark to obtain a reference solution of known concentration. Inject 5 μL into the HPLC, detect peak area at 254 nm wavelength. Prepare supersaturated aqueous solution of the sample, filter and inject 5 μL into the HPLC, detect peak area at 254 nm wavelength. The solubility of the compound in water […] is calculated according to the following formula: CS = CA × AB/AA (CA represents the concentration of the reference solution, AA represents the peak area of the reference solution, and AB represents the saturated peak area of the sample).

[3] = Preliminary liver microsomal stability testing; type: in vitro ADME, Mouse
Method: 6. Supplementary Ta b l e 3: Preliminary liver microsomal stability testing of Ta r O
Compounds Species T1/2 Clint In Vitro MF […]
a MF: metabolic bioavailability.
Microsomes in 0.1 M TRIS buffer pH 7.4 (final concentration 0.33 mg/mL), co- factor MgCl2 (final concentration 5 mM) and tested compound (final concentration 0.1 μM, co-solvent 0.01% DMSO and 0.005% Bovin serum albumin BSA) were incubated at 37°C for 10 min. The reaction was started by the addition of NADPH (final concentration 1 mM). Aliquots were sampled at 0, 5, 15, 30 and 60 min respectively and methanol (cold in wet ice) was added to terminate the reaction.
After centrifugation (4000rpm,5 min), samples were then analyzed by LC- MS/MS.

[4] = tested on: S.aureus USA300 LAC wild-type; test: Antagonistic (chemical suppression) test of 18a against Targocil, checkerboard
[5] = tested on: S.aureus USA300 LAC biofilm; test: Static biofilm inhibition assay (crystal violet); type: cell-based, Staphylococcus aureus; conditions: USA300 LAC
[6] = tested on: HS663; test: MIC determination, broth microdilution
[7] = tested on: MRSA HS663 strain; test: Galleria mellonella larva infection assay; conditions: for survival time of infected larvae: HS663 1.5 × 10^6 CFU
Method: Galleria mellonella infection experiment was performed according to previous methods[24]. Generally, HS663 was grown overnight in TSB (Tryptone Soya Broth) at 37 °C with shaking at 250 rpm. Then cultures were diluted 1:100 into 10 ml fresh TSB, and were further grown for 3 h. The bacterial cells were harvested by centrifugation at 5700 g for 5 min, washed twice with sterilized PBS, and suspended with PBS. Galleria mellonella larvae (Tianjin HuiYuDe Biotechnological Co., Ltd.) about 300 mg was selected to infect. […] After infection for 1 h, the larvae were administrated with compounds or solvent only. Then the Galleria mellonella larvae was cultivated at 37 °C and survival rates were recorded every 12 h for 5 days to analyze the mortality data.

[8] = tested on: USA300 LAC; test: Checkerboard MIC assay with oxacillin; type: cell-based, Staphylococcus aureus; conditions: USA300 LAC/oxacillin; for Minimum sensitization concentration: test range 0.03–32 μg/mL
Method: (§1) In the checkerboard assay, concentrations of antibiotics, oxacillin and imipenem, and TarO inhibitors were simultaneously varied across columns and the rows, respectively. […] The range of each compound chosen for the checkerboard assay was according to their MIC value. […] For each clear well observed on the checkerboard MIC plate, the fractional inhibitory concentration index (FICI) was calculated as follows: FICI = FIC (inhibitor) + FIC (antibiotic) = MIC inhibitor in combination/ MIC inhibitor alone + MIC antibiotic in combination/MIC antibiotic alone. FIC = Fractional Inhibitory Concentration. A FICI value of < 0.5 indicates synergy, a value between 0.5 and 2 indicates additivity or indifference, and a value > 2 indicates antagonism.

[9] = tested on: USA400 MW2; test: Checkerboard MIC assay with oxacillin; type: cell-based, Staphylococcus aureus; conditions: for Sensitization fold / FICI / Maximum sensitization concentration / Minimum sensitization concentration: USA400 MW2/oxacillin; for Maximum sensitization concentration / Minimum sensitization concentration: test range 0.03–32 μg/mL; for MIC of β-lactam, combined: USA400 MW2
Method: as §1

[10] = tested on: HS663; test: Checkerboard MIC assay with imipenem; type: cell-based, Staphylococcus aureus; conditions: for FICI / Sensitization fold / Maximum sensitization concentration / Minimum sensitization concentration: HS663/imipenem; for Maximum sensitization concentration / Minimum sensitization concentration: test range 0.03–32 μg/mL; for MIC of β-lactam, combined: HS663
Method: as §1

[11] = tested on: TntarO::vraXpro-lux (S.aureus JE2 tarO mutant); test: vraXpro-lux induction and growth of tarO mutant (target verification); type: cell-based, Staphylococcus aureus; conditions: different concentrations
Method: Second, the vraXpro-lux induction and growth inhibition experiment were conducted using a tarO mutant, as we assumed that a compound with other targets may still change the growth characteristic and the vraXpro-lux expression pattern of the mutant, whereas a TarO inhibitor would not, as its target is absent in the mutant.
Generally, JE2::vraXpro-lux and its isogenic ^TntarO::vraXpro-lux reporter strains were used for preliminary screening and cellular-based target verification. JE2::vraXpro-lux was obtained by transduction of the vraXpro-lux fusions from RN4220 strain to JE2, a plasmid-cured derivative of the community-associated MRSA strain USA300 LAC. ^TntarO::vraXpro-lux was further obtained by transposon insertion mutation of the tarO gene using a mariner-based transposon in JE2 reporter strain[41]. […] Then, 200 μL aliquot of the samples were distributed to a 96-well black-wall clear-bottom plate (Costar, Corning Incorporated), and 45 μL saxoline was added to each well to prevent the evaporation of the medium. vraXpro-lux expression level and the growth curve were measured using a Cytation 1 Multi-Mode Microplate Reader (Biotek) at different time points as indicated.

[12] = molecular target: TarO (Staphylococcus aureus, UniProt Q2G060); type: cell-based; conditions: for IC50: relative inhibition rate against the wild-type strain, OD600 at 20 h, n.a. = IC50 cannot be calculated within the test range
[13] = tested on: USA400 MW2; test: MIC determination, broth microdilution; conditions: Staphylococcus aureus
[14] = Cytotoxicity assay (Sulforhodamine B); type: cell-based; conditions: human
Method: The cytotoxicity was detected by Sulforhodamine B method. The human pancreatic cancer cell line Capan-1, human colon cancer cell line HCT-116 and human lung adenocarcinoma cell line NCI-H1373 were purchased from American Type Culture Collection (ATCC; Manassas, VA) and inoculated into 96-well plates in triplicate. The cells were treated with different concentrations of compounds in humidified incubator containing 5% CO2 for 72 h when they reached 70%-80% confluence. Vincristine was added as a positive control. Then, SRB staining agent was added and microplate analyzer was used to read the absorbance at 450 nm wavelength. The cytotoxicity of each compound is expressed as the concentration of the compound that reduces cell viability to 50% (IC50). The optical density (OD) at a wavelength of 450 nm was measured using an SpectraMax 190 Microplate Reader (Molecular Devices; USA). The IC50 value was calculated by the Logit method using Graphpad Prism 9.1.

[15] = tested on: ΔtarO strain of USA300 LAC; test: Chemical suppression test, Targocil on tarO null mutant control; conditions: Targocil 2–64 μg/mL
[16] = tested on: bacteria; test: MIC determination, positive control (strain not stated); conditions: 24 h
[17] = at maximum sensitization concentration
[18] = at minimum sensitization concentration
[19] = oxacillin with TarO inhibitor at maximum sensitization concentration
[20] = oxacillin with TarO inhibitor at minimum sensitization concentration
[21] = imipenem with TarO inhibitor at maximum sensitization concentration
[22] = imipenem with TarO inhibitor at minimum sensitization concentration

SMILES	MIC [1] [µg/mL]	MIC ([6]; Staphylococcus aureus) [µg/mL]	FICI [8, 17]	Sensitization fold [8, 17]	FICI [8, 18]	Sensitization fold [8, 18]	Minimum sensitization concentration [8] [µg/mL]	Sensitization fold [9, 17]	FICI [9, 18]	Sensitization fold [9, 18]	Maximum sensitization concentration [9] [µg/mL]	Minimum sensitization concentration [9] [µg/mL]	MIC of β-lactam, combined [9, 19] [µg/mL]	MIC of β-lactam, combined [9, 20] [µg/mL]	FICI [10, 17]	Sensitization fold [10, 17]	FICI [10, 18]	Sensitization fold [10, 18]	Maximum sensitization concentration [10] [µg/mL]	Minimum sensitization concentration [10] [µg/mL]	also measured
C[C@H]1[C@@H](c2cc(C(F)(F)F)cc(C(F)(F)F)c2)OC(=O)N1C(=O)CCn1ccc(=O)c2cccnc21 [Compound 18a]	> 256	> 256	<0.13	256	<0.13	8	0.03	64	<0.26	4	32	0.03	0.25	4	<0.15	8	<0.51	2	4	0.03	solubility [2]: 20 µg/mL (≈ 39 µM); Clint In Vitro ([3]; Mouse liver microsomes): 3051 mL/min/gprot; Comments (metabolic stability) ([3]; Mouse liver microsomes): poor and did not achieve the desired result; half-life at 0.1 μM ([3]; pH 7.4, Mouse liver microsomes 0.33 mg/mL, 0.1 μM compound): 41.4 s; concentration (as low as) alleviating the growth inhibition of Targocil ([4]; WT strain, 18a range 0.25–128 μg/mL): 0.25 µg/mL; concentration (as low as) significantly reducing biofilm formation ([5]; 24 h static culture): 8 µg/mL; MIC ([6]; HS663, compound alone): exceeds 256 μg/mL; extension of survival time ([7]; 16 mg/kg, higher infection dose, HS663 2.0 × 10^6 CFU): even higher than that of 20 mg/kg of imipenem treating group; survival rate of infected larvae, combination ([7]; 18a 16 mg/kg in combination with 20 mg/kg imipenem, compared with imipenem alone, 2.0 × 10^6 CFU): a further improvement in the survival rate; survival time of infected larvae ([7]; single administration 8 mg/kg): significantly extended the survival time; survival time of infected larvae ([7]; single administration 16 mg/kg): significantly extended the survival time; MIC of β-lactam, combined [10, 21]: 8 µg/mL; MIC of β-lactam, combined [10, 22]: 32 µg/mL; vraXpro-lux expression pattern and growth characteristics of the tarO mutant [11]: neither Tarocin A nor 18a further changed the vraXpro-lux expression pattern as well as the growth characteristics of the mutant; IC50 [12]: 3.66 µM; MIC [13]: > 256 µg/mL; IC50 at 72 h ([14]; Capan-1, 72 h): > 20 µM; IC50 at 72 h ([14]; HCT-116, 72 h): > 20 µM; IC50 at 72 h ([14]; NCI-H1373, 72 h): > 20 µM
CCN(CC)c1nc2c(S(=O)(=O)c3ccc(Cl)cc3)nnn2c2cc(OC)c(OC)cc12 [Targocil, reference compound]																					MIC ([4]; Targocil alone, WT S.aureus): about 8 μg/mL; lethal effect on the tarO mutant [15]: did not exhibit a lethal effect
C[C@H]1[C@@H](c2cc(C(F)(F)F)cc(C(F)(F)F)c2)OC(=O)N1C(=O)Cc1cccc2ccccc12 [Tarocin A, reference compound]	> 256	> 256	<0.26	4	<0.51	2	0.06	16	<0.51	2	0.5	0.06	1	8	<0.14	8	<0.51	2	2	0.25	water solubility [2]: almost insoluble in pure water; static biofilm formation ([5]; tested concentration range 0.03 to 32 μg/mL): did not reduce static biofilm formation; FICI [9, 17]: <0.07; MIC of β-lactam, combined [10, 21]: 8 µg/mL; MIC of β-lactam, combined [10, 22]: 32 µg/mL; vraXpro-lux expression pattern and growth characteristics of the tarO mutant [11]: neither Tarocin A nor 18a further changed the vraXpro-lux expression pattern as well as the growth characteristics of the mutant; induction of vraXpro-lux expression ([12]; MRSA USA300 LAC strain, exponential growth phase): concentration-dependent manner; bacterial growth density (OD600) ([12]; post-exponential growth phase): effectively reduced the bacterial growth density; IC50 [12]: 9.7 µM; MIC [13]: > 256 µg/mL; IC50 at 72 h ([14]; Capan-1 cells (human pancreatic cancer cell line), Capan-1, 72 h): > 20 µM; IC50 at 72 h ([14]; HCT-116 cells (human colon cancer cell line), HCT-116, 72 h): > 20 µM; IC50 at 72 h ([14]; NCI-H1373 cells (human lung adenocarcinoma cell line), NCI-H1373, 72 h): > 20 µM
CN[C@H](CC(C)C)C(=O)N[C@H]1C(=O)N[C@@H](CC(N)=O)C(=O)N[C@H]2C(=O)N[C@H]3C(=O)N[C@H](C(=O)N[C@H](C(=O)O)c4cc(O)cc(O)c4-c4cc3ccc4O)[C@H](O)c3ccc(c(Cl)c3)Oc3cc2cc(c3O[C@@H]2O[C@H](CO)[C@@H](O)[C@H](O)[C@H]2O[C@H]2C[C@](C)(N)[C@H](O)[C@H](C)O2)Oc2ccc(cc2Cl)[C@H]1O [vancomycin]																					MIC [16]: 1 µg/mL (≈ 0.69 µM)
